Assay results published in patent US7022716B2, “Cyclic amine phenyl beta-3 adrenergic receptor agonists” (Wyeth, priority 2000, dated 2006).

Columns and labels:
[1] = target: T1, human β3 adrenergic receptor (Homo sapiens, UniProt P13945); test: cAMP (SPA) response in CHO cells transfected with human β3 adrenergic receptor; format: cell-based; parameters: key: fraction of maximal isoproterenol (10^-5 M) response; conditions: maximal response relative to maximal response of isoproterenol at 10^-5 M
T1 construct: Full length β3 AR clones (402 amino acids) containing the last 6 amino acids of hβ3-AR are prepared; expressed in transfected cells; host or cells: CHO (Chinese hamster ovary) cells
Procedure, shortened: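 Reactions were stopped with 0.2N HCl and neutralised, and cAMP was measured by SPA. Activity is expressed as percent of the maximal 10^−5 M isoproterenol response.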

T1 sequence (P13945 whole entry): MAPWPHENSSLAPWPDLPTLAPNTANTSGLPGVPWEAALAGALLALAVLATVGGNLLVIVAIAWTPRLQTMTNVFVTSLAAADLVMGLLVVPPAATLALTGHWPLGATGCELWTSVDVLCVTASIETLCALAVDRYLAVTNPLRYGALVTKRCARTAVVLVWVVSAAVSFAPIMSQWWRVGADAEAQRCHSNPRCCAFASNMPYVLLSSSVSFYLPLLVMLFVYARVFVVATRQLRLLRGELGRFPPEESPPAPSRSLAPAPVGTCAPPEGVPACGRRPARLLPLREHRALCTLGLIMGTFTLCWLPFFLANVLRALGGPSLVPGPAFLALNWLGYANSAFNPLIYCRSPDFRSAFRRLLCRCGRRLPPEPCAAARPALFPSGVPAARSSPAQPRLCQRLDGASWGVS

With O=C1NC(=O)C(Cc2ccc(N3CCC(NC[C@H](O)COc4cccnc4)CC3)cc2)S1 (stereo partly drawn) [Example 125, 5-(4-{4-[(2S)-2-Hydroxy-3-(pyridin-3-yloxy)-propylamino]-piperidin-1-yl}-benzyl)-thiazolidine-2,4-dione] the “IA(β3)” value [1] was 0.36 and the melting point was 130 to 132 °C.
In the case of COC(=O)[C@@H]1CCCN1C(=O)c1ccc(N2CCC(NC[C@H](O)c3ccc(O)c(NS(C)(=O)=O)c3)CC2)cc1 [Example 200, 1-(4-{4-[(2R)-2-Hydroxy-2-(4-hydroxy-3-methanesulfonylamino-phenyl)-ethylamino]-piperidin-1-yl}-benzoyl)-pyrrolidine-(2S)-2-carboxylic acid methyl ester], the “IA(β3)” value [1] is reported as 1.1 and the melting point is reported as > 80 °C (dec.).
For CCOC(=O)CCNC(=O)c1ccc(N2CCC(NC[C@H](O)c3ccc(O)c(NS(C)(=O)=O)c3)CC2)cc1 [Example 193, Ethyl3-[(4-{4-[((2R)-2-hydroxy-2-{4-hydroxy-3-[(methylsulfonyl)amino]phenyl}-ethyl)amino]-1-piperidinyl}benzoyl)amino]propanoate.], the “IA(β3)” value [1] was 0.9 and the melting point was > 95 °C (dec.).
With O=C1NC(=O)C(Cc2ccc(N3CCC(NC[C@H](O)c4cccnc4)CC3)cc2)S1 (stereo partly drawn) [Example 136, 5-{4-[4-((2R)-2-Hydroxy-2-pyridin-3-yl-ethylamino)-piperidin-1-yl]-benzyl}-thiazolidine-2,4-dione] the “IA(β3)” value [1] was 0.9 and the melting point was 87 °C (dec.).
In the case of CS(=O)(=O)Nc1cc([C@@H](O)CNC2CCN(c3ccc(NC(=O)c4ccc5c(c4)OCO5)cc3)CC2)ccc1O [Example 394, N-(4-{4-[((2R)-2-Hydroxy-2-{4-hydroxy-3-[(methylsulfonyl)amino]phenyl}ethyl)amino]-1-piperidinyl}phenyl)-1,3-benzodioxole-5-carboxamide], the “IA(β3)” value [1] is reported as 1.3 and the melting point is reported as 104 to 113 °C.
In the case of COc1ccc(C(=O)Nc2ccc(N3CCC(NC[C@H](O)COc4cccc5[nH]c6ccccc6c45)CC3)cc2)cc1OC [Example 389, N-[4-(4-{[(2S)-3-(9H-Carbazol-4-yloxy)-2-hydroxypropyl]amino}-1-piperidinyl)phenyl]3,4-dimethoxybenzamide], the “IA(β3)” value [1] is reported as 0.61 and the melting point is reported as 183 to 191 °C.
With O=C(CCC1CCCC1)Nc1ccc(N2CCC(NC[C@H](O)COc3cccc4[nH]c(=O)[nH]c34)CC2)cc1 [Example 392, 3-Cyclopentyl-N-{4-[4-({(2S)-2-hydroxy-3-[(2-oxo-2,3-dihydro-1H-benzimidazol-4-yl)oxy]propyl}amino)-1-piperidinyl]phenyl}propanamide] the “IA(β3)” value [1] was 0.9 and the melting point was 140 to 144 °C.
For CCOC(=O)CC[C@H](NC(=O)c1ccc(N2CCC(NC[C@H](O)c3ccc(O)c(NS(C)(=O)=O)c3)CC2)cc1)C(=O)OCC [Example 192, Diethyl(2S)-2-[(4-{4-[((2R)-2-hydroxy-2-{4-hydroxy-3-[(methylsulfonyl)amino]phenyl}ethyl)amino]-1-piperidinyl}benzoyl)amino]pentanedioate], the “IA(β3)” value [1] was 0.97 and the melting point was > 75 °C (dec.).
In the case of CS(=O)(=O)Nc1cc(C(O)CNC2CCN(c3ccc(C=C4SC(=O)NC4=O)cc3F)CC2)ccc1O (centres unmarked) [Example 71, N-[5-(2-{1-[4-(2,4-Dioxo-thiazolidin-5-ylidenemethyl)-2-fluoro-phenyl]-piperidin-4-ylamino}-1-hydroxy-ethyl)-2-hydroxy-phenyl]-methanesulfonamide], the “IA(β3)” value [1] is reported as 1.2 and the melting point is reported as greater than 225 °C.
With CCOC(=O)c1ccc(N2CCC(NC[C@H](O)COc3cccc4[nH]c(=O)[nH]c34)CC2)cc1 [Example 179] the “IA(β3)” value [1] was 0.85 and the melting point was > 170 °C (dec.).
For CS(=O)(=O)Nc1cc([C@@H](O)CNC2CCN(c3ccc(COCC(=O)O)cc3)CC2)ccc1O [Example 185, (4-{4-[(2R)-2-Hydroxy-2-(4-hydroxy-3-methanesulfonylamino-phenyl)-ethylamino]-piperidin-1-yl}-benzyloxy)-acetic acid], the “IA(β3)” value [1] was 0.69 and the melting point was > 145 °C (dec.).
In the case of O=C1NC(=O)C(=Cc2ccc(N3CCC(NC[C@H](O)COc4cccc5[nH]c(=O)[nH]c45)CC3)cc2)S1 [Example 75, 5-(4-{4-[(2S)-2-Hydroxy-3-(2-oxo-2,3-dihydro-1H-benzoimidazol-4-yloxy)-propylamino]-piperidin-1-yl}-benzylidene)-thiazolidine-2,4-dione], the “IA(β3)” value [1] is reported as 1.08 and the melting point is reported as > 240 °C (dec.).
For COC(=O)[C@H](Cc1ccccc1)NC(=O)c1ccc(N2CCC(NC[C@H](O)c3ccc(O)c(NS(C)(=O)=O)c3)CC2)cc1 [Example 204, (2S)-2-(4-{4-[(2R)-2-Hydroxy-2-(4-hydroxy-3-methanesulfonylamino-phenyl)-ethylamino]-piperidin-1-yl}-benzoylamino)-3-phenyl-propionic acid methyl ester], the “IA(β3)” value [1] was 1.2 and the melting point was > 98 °C (dec.).
In the case of O=C(Nc1ccc(N2CCC(NC[C@H](O)COc3cccc4[nH]c(=O)[nH]c34)CC2)cc1)c1ccc2c(c1)OCO2 [Example 390, N-{4-[4-({(2S)-2-Hydroxy-3-[(2-oxo-2,3-dihydro-1H-benzimidazol-4-yl)oxy]propyl}-amino)-1-piperidinyl]phenyl}-1,3-benzodioxole-5-carboxamide], the “IA(β3)” value [1] is reported as 0.82 and the melting point is reported as 160 to 169 °C.
With O=C1CCc2c(OC[C@@H](O)CNC3CCN(c4ccc(CC5SC(=O)NC5=O)cc4)CC3)ccc(O)c2N1 (stereo partly drawn) [Example 91, 5-(4-{4-[(2S)-2-Hydroxy-3-(8-hydroxy-2-oxo-1,2,3,4-tetrahydro-quinolin-5-yloxy)-propylamino]-piperidin-1-yl}-benzyl)-thiazolidine-2,4-dione] the “IA(β3)” value [1] was 1.2 and the melting point was > 140 °C (dec.).
With CS(=O)(=O)Nc1cc([C@@H](O)CNC2CCN(c3ccc(-c4cc(=O)[nH][nH]4)cc3)CC2)ccc1O [Example 146, N-[(2R)-2-Hydroxy-5-(1-hydroxy-2-{1-[4-(5-oxo-2,5-dihydro-1H-pyrazol-3-yl)-phenyl]-piperidin-4-ylamino}-ethyl)-phenyl]-methanesulfonamide] the “IA(β3)” value [1] was 0.91 and the melting point was 225 to 227 °C.
For CCOC(=O)[C@H](CC(C)C)NC(=O)c1ccc(N2CCC(NC[C@H](O)c3ccc(O)c(NS(C)(=O)=O)c3)CC2)cc1 [Example 198, (2S)-2-(4-{4-[(2R)-2-Hydroxy-2-(4-hydroxy-3-methanesulfonylamino-phenyl)-ethylamino]-piperidin-1-yl}-benzoylamino)-4-methyl-pentanoic acid ethyl ester:], the “IA(β3)” value [1] was 0.97 and the melting point was > 85 °C (dec.).
In the case of CCOC(=O)[C@@H](NC(=O)c1ccc(N2CCC(NC[C@H](O)c3ccc(O)c(NS(C)(=O)=O)c3)CC2)cc1)C(C)C [Example 202, (2S)-2-(4-{4-[(2R)-2-Hydroxy-2-(4-hydroxy-3-methanesulfonylamino-phenyl)-ethylamino]-piperidin-1-yl}-benzoylamino)-3-methyl-butyric acid ethyl ester], the “IA(β3)” value [1] is reported as 1.2 and the melting point is reported as > 85 °C (dec.).
In the case of CS(=O)(=O)Nc1cc([C@@H](O)CNC2CCN(c3ccc(CC(=O)O)cc3)CC2)ccc1O [Example 182, (4-{4-[(2R)-2-Hydroxy-2-(4-hydroxy-3-methanesulfonylamino-phenyl)-ethylamino]-piperidin-1-yl}-phenyl)-acetic acid], the “IA(β3)” value [1] is reported as 0.86 and the melting point is reported as > 140 °C (dec.).
With CS(=O)(=O)Nc1cc([C@@H](O)CNC2CCN(c3ccc(-c4nnn(CC(=O)O)n4)cc3)CC2)ccc1O [Example 100, [5-(4-{4-[((2R)-2-Hydroxy-2-{4-hydroxy-3-[(methylsulfonyl)amino]phenyl}ethyl)amino]-1-piperidinyl}phenyl)-2H-tetraazol-2-yl]acetic acid] the “IA(β3)” value [1] was 0.9 and the melting point was > 240 °C (dec.).
With CCOC(=O)C(=Cc1ccc(N2CCC(NCC(O)c3ccc(O)c(NS(C)(=O)=O)c3)CC2)cc1)C(=O)OCC (centres unmarked) [Example 188, 2-(4-{4-[2-Hydroxy-2-(4-hydroxy-3-methanesulfonylamino-phenyl)-ethylamino]-piperidin-1-yl}-benzylidene)-malonic acid diethyl ester] the “IA(β3)” value [1] was 0.91 and the melting point was > 80 °C (dec.).
With CS(=O)(=O)Nc1cc([C@@H](O)CNC2CCN(c3ccc(CCC(=O)O)cc3)CC2)ccc1O [Example 184, 3-(4-{4-[(R)-2-Hydroxy-2-(4-hydroxy-3-methanesulfonylamino-phenyl)-ethylamino]-piperidin-1-yl}-phenyl)-propionic acid] the “IA(β3)” value [1] was 1.1 and the melting point was 130 to 133 °C.
In the case of CC(C)(C)OC(=O)CN1C(=O)SC(Cc2ccc(N3CCC(NC[C@H](O)c4ccc(O)c(NS(C)(=O)=O)c4)CC3)cc2)C1=O (stereo partly drawn) [Example 64, 5-[[4-[4-[[(R)-2-Hydroxy-2-[4-hydroxy-3-[(methylsulfonyl)amino]phenyl]ethyl]amino]-1-piperidinyl]phenyl]methyl]-2,4-dioxo-3-thiazolidineacetic acid tert-butyl-ester], the “IA(β3)” value [1] is reported as 1 and the melting point is reported as 130 to 132 °C.
With O=C1NC(=O)C(Cc2ccc(N3CCC(NC[C@H](O)c4cccc(Cl)c4)CC3)cc2)S1 (stereo partly drawn) [Example 79, 5-(4-{4-[2-(3-Chloro-phenyl)-(2R)-2-hydroxyethylamino}-piperidin-1-yl}-benzyl)-thiazolidine-2,4-dione] the “IA(β3)” value [1] was 0.56 and the melting point was greater than 195 °C.
In the case of CS(=O)(=O)Nc1cc([C@@H](O)CNC2CCN(c3ccc(C(=O)NCCC(=O)O)cc3)CC2)ccc1O [Example 195, N-(4-{4-[((2R)-2-Hydroxy-2-{4-hydroxy-3-[(methylsulfonyl)amino]phenyl}ethyl)amino]-1-piperidinyl}benzoyl)-bete-alanine], the “IA(β3)” value [1] is reported as 0.98 and the melting point is reported as > 170 °C (dec.).
